Data from a compilation of properties of binary mixtures (doi:10.1021/acs.iecr.0c01496).

Test: xn = mol fraction of the nth substance listed
Conditions: 101 kPa

CCCC[n+]1ccccc1.[Cl-] + CC[n+]1ccccc1.[Br-]
viscosity [mPa·s]
Conditions | x2 = 0.104 | x2 = 0.193 | x2 = 0.313 | x2 = 0.408 | x2 = 0.484 | x2 = 0.604 | x2 = 0.64 | x2 = 0.694 | x2 = 0.797 | x2 = 0.894
368.1 K | – | – | – | – | 56.3 | 46 | 43.6 | 39.7 | – | –
373.1 K | – | – | – | – | 47.7 | 39.5 | 37.6 | 34.5 | – | –
378.1 K | – | – | – | – | 40.7 | 34.1 | 32.6 | 30.1 | 26 | –
383.1 K | – | – | – | 38.5 | 34.8 | 29.6 | 28.3 | 26.3 | 23 | –
388.1 K | – | – | – | 32.9 | – | 25.7 | 24.7 | – | 20.4 | –
393.1 K | – | 36 | 31.5 | 28.3 | 25.9 | 22.5 | – | 20.4 | – | 16.16
398.1 K | – | 30.5 | 27 | 24.4 | 22.5 | 19.7 | 19 | 18.01 | 16.16 | 14.53
403.1 K | 28.4 | 26.1 | 23.3 | – | 19.7 | – | 16.77 | 15.99 | 14.46 | 13.09
408.1 K | 24.4 | 22.4 | 20.2 | 18.5 | 17.27 | 15.38 | – | 14.24 | – | 11.82
413.1 K | 21 | – | 17.7 | 16.27 | 15.24 | 13.66 | – | – | – | 10.69
418.1 K | – | 16.98 | 15.51 | 14.37 | 13.52 | 12.2 | – | – | 10.53 | 9.7
423.1 K | 16.01 | 14.92 | – | 12.77 | 12.04 | 10.92 | 10.59 | 10.27 | – | –
428.1 K | 14.14 | 13.22 | – | 11.41 | 10.79 | – | 9.53 | – | 8.64 | 8.01
433.1 K | 12.59 | 11.8 | 10.96 | 10.25 | – | 8.86 | – | 8.41 | 7.85 | 7.31
438.1 K | 11.29 | 10.6 | 9.89 | 9.26 | 8.8 | – | 7.81 | 7.65 | 7.17 | –
443.1 K | 10.22 | 9.6 | 8.97 | 8.42 | 8.01 | 7.32 | – | 6.98 | – | 6.11

CC[n+]1ccccc1.[Cl-] + CCCC[n+]1ccccc1.[Cl-]
viscosity [mPa·s]
Conditions | x1 = 0.121 | x1 = 0.198 | x1 = 0.302 | x1 = 0.388 | x1 = 0.504 | x1 = 0.597 | x1 = 0.702 | x1 = 0.795 | x1 = 0.804
363.1 K | – | – | – | – | – | – | – | 58.2 | 57.9
368.1 K | – | – | – | – | – | – | – | 47.6 | 47.5
373.1 K | – | – | – | – | – | – | – | 39.3 | 39.3
378.1 K | – | – | – | – | – | – | – | – | 32.7
383.1 K | – | – | – | – | – | – | – | 27.4 | 27.4
388.1 K | – | – | – | – | – | 28.8 | 25.5 | 23.1 | –
393.1 K | – | – | – | – | – | 24.4 | 21.6 | 19.7 | –
398.1 K | – | – | – | 25.3 | – | 20.7 | – | 16.8 | –
403.1 K | – | – | – | 21.5 | 20.1 | 17.8 | 15.9 | 14.53 | –
408.1 K | – | – | 20.2 | 18.5 | 17.4 | 15.39 | 13.73 | 12.63 | 12.79
413.1 K | – | – | 17.5 | 15.98 | 15.22 | 13.41 | 11.98 | – | 11.23
418.1 K | 17.66 | 17.21 | 15.22 | 13.94 | – | 11.79 | 10.54 | 9.75 | 9.93
423.1 K | 15.42 | 15.14 | 13.36 | – | 11.92 | 10.44 | 9.33 | 8.67 | 8.86
428.1 K | 13.58 | 13.44 | 11.83 | 10.85 | 10.69 | 9.32 | – | – | 7.96
433.1 K | 12.06 | 12.04 | 10.56 | 9.69 | 9.66 | – | 7.5 | 7 | 7.21
438.1 K | 10.81 | 10.88 | – | 8.73 | 8.81 | 7.61 | – | 6.37 | 6.58
443.1 K | 9.77 | 9.92 | 8.64 | 7.94 | – | 6.96 | 6.22 | 5.84 | –

CC[n+]1ccccc1.[Cl-] + CC[n+]1ccccc1.[Br-]
viscosity [mPa·s]
Conditions | 403.1 K | 408.1 K | 413.1 K | 418.1 K | 423.1 K | 428.1 K | 433.1 K | 438.1 K | 443.1 K
x1 = 0.105 | 12.65 | 11.56 | 10.55 | 9.63 | 8.8 | 8.05 | 7.39 | 6.82 | 6.34
x1 = 0.196 | 12.66 | 11.53 | 10.51 | – | – | 7.97 | 7.31 | 6.75 | 6.27
x1 = 0.303 | 12.66 | – | 10.45 | 9.5 | – | – | 7.22 | 6.66 | 6.2
x1 = 0.387 | 12.65 | – | 10.31 | 9.37 | 8.55 | 7.84 | 7.23 | 6.69 | 6.22
x1 = 0.503 | 12.66 | 11.37 | – | 9.28 | 8.45 | 7.74 | – | 6.61 | 6.15
x1 = 0.613 | 12.67 | 11.33 | 10.19 | – | – | 7.65 | 7.05 | – | 6.08
x1 = 0.688 | – | 11.3 | 10.15 | 9.17 | 8.33 | – | 7 | 6.47 | 6.02
x1 = 0.803 | 12.66 | 11.26 | 10.08 | 9.08 | 8.24 | 7.52 | 6.9 | 6.38 | 5.94
x1 = 0.885 | 12.65 | 11.22 | 10.02 | 9.02 | – | 7.44 | 6.83 | 6.32 | 5.88

CCCC[n+]1ccccc1.[Cl-] + CCCC[n+]1ccccc1.[Br-]
viscosity [mPa·s]
Conditions | 398.1 K | 403.1 K | 408.1 K | 413.1 K | 418.1 K | 423.1 K | 428.1 K | 433.1 K | 438.1 K | 443.1 K
x1 = 0.084 | – | – | 22.9 | 19.4 | 16.6 | – | 12.56 | 11.09 | 9.91 | 8.95
x1 = 0.169 | 33.5 | 27.8 | 23.3 | 19.7 | – | 14.63 | 12.79 | 11.3 | – | 9.1
x1 = 0.292 | 33.8 | 28.1 | 23.6 | 20 | 17.2 | 14.84 | 12.97 | – | 10.22 | 9.22
x1 = 0.389 | – | 28.5 | – | 20.3 | – | 15.07 | 13.18 | 11.63 | 10.37 | 9.35
x1 = 0.469 | – | 29.1 | 24.5 | 20.9 | 18 | 15.61 | 13.69 | 12.13 | – | 9.81
x1 = 0.611 | – | – | 25.1 | 21.4 | 18.4 | 16.03 | 14.06 | 12.46 | 11.15 | 10.07
x1 = 0.689 | – | – | – | 21.5 | – | 16.11 | 14.13 | 12.51 | 11.17 | 10.08
x1 = 0.785 | – | – | – | 21.9 | 18.9 | 16.43 | – | 12.76 | 11.41 | 10.29
x1 = 0.892 | – | – | – | – | – | – | 14.84 | – | – | 10.63
